Reference: US20240002846A1, “COMPOSITIONS AND METHODS FOR THE DIAGNOSIS AND TREATMENT OF ITCH” (Duke University, priority 2020, published 2024)
“Also recorded” adds a separate entry of the source.

Legend:
hTRPV4-R746C = target: T1, hTRPV4-R746C (Homo sapiens, UniProt Q9HBA0, R746C); assay: Inside-out patch-clamp, hTRPV4-R746C; assay type: biochemical; details: 5 μM LPC 18:1
T1 construct: expressed in transfected cells; host or cells: HEK293
Experimental: (§1) Cell culture and transfection. HEK293 cells (ATCC® CRL-1573) were cultured on poly-D-lysine coated coverslips in 24-well plate containing DMEM media with high-Glucose (Gibco, Gaithersburg, MD) supplemented with 10% fetal bovine serum (FBS, HyClone Laboratories, Logan, UT) and 100 U/mL of penicillin/streptomycin (Gibco, Gaithersburg, MD). Cell cultures were maintained with 5% of CO2 in a humidified incubator at 37° C. HEK cells were transfected with rat or human wild type or mutant TRPV4 channels with EGFP or YFP coupled to their C-termini (1.5 μg of plasmid for excised patch clamp and Ca^2+ imaging and 200 ng for single-channel experiments). […]
(§2) Electrophysiology. Currents were recorded using the inside-out configuration of the patch-clamp technique (Hamill et al. Pflugers Arch. 1981, 391, 85-100). […] Mean current values in response to GSK1016790A or LPC 18:1 were measured after channel activation had reached the steady-state (˜3 min). […] Currents were low-pass filtered at 2 kHz and sampled at 10 kHz with an EPC 10 amplifier (HEKA Elektronik) and were plotted and analyzed with Igor Pro (Wavemetrics Inc.).

hTRPV4-R746G = target: T2, hTRPV4-R746G (Homo sapiens, UniProt Q9HBA0, R746G); assay: Inside-out patch-clamp, hTRPV4-R746G; assay type: biochemical; details: 5 μM LPC 18:1
T2 construct: expressed in transfected cells; host or cells: HEK293
Experimental: as §1, §2

rTRPV4-R746D = rTRPV4-R746D (Rattus norvegicus, UniProt Q9ERZ8, R746D); assay: Inside-out patch-clamp, HEK cells transfected with rTRPV4-R746D; assay type: biochemical; set-up: expressed in transfected cells; host or cells: HEK293; details: 5 μM LPC 18:1
Experimental: as §1, §2

pERK expression [1] = assay: pERK Western blot in cultured mouse keratinocytes; assay type: cell-based; details: inhibitor 10 μM
Experimental: Primary mouse keratinocytes were cultured following previous protocol (Chen et al. J. Biol. Chem. 2016, 291, 10252-10262). The epidermis from the back skin of newborn WT or keratinocyte-Trpv4 cKO mice was separated from the dermis by floating the skin on 0.25% trypsin (Gibco, Gaithersburg, MD) for 14-18 h at 4° C. Basal keratinocytes were separated from the cornified sheets by filtration through a […] cell strainer. Keratinocytes were plated on collagen I-coated dishes or glass coverslips and grown in EME media (Gibco, Gaithersburg, MD) containing 8% chelex (Bio-rad, Hercules, CA)-treated FBS with the final Ca^2+ adjusted to 0.05 mM, bovine pituitary extract (50 μg/mL), epidermal growth factor (5 ng/mL), and lx antibiotics/antimycotics (Gibco, Gaithersburg, MD) in a humidified incubator with 5% CO2 at 37° C. for 5-7 days until use. To knockdown Trpv4 in isolated keratinocytes from newborn keratinocyte-Trpv4 cKO mice, cells were treated with 4-OH tamoxifen at 500 nM for 72 h.
Western Blot. Routine procedures were followed (Chen et al. J. Biol. Chem. 2016, 291, 10252-10262, Chen et al. Pain 2014, 155, 2662-2672). […] Immunoblot band intensity was quantitated using the software Image J and ERK served as a control for pERK expression.

pERK expression [2] = assay: pERK Western blot in cultured human keratinocytes; assay type: cell-based; details: inhibitor 10 μM
Experimental: Primary human keratinocytes were cultured as previously described (Chen et al. J. Biol. Chem. 2016, 291, 10252-10262). In brief, surgically discarded foreskin samples, obtained from Duke Children's Hospital in accordance to institutionally approved IRB protocol, were incubated with Dispase (Gibco, Gaithersburg, MD, 4 U/mL) for 12-16 h at 4° C. followed by 0.05% trypsin (Gibco, Gaithersburg, MD) for 10-20 min at 37° C. Cells were maintained in keratinocyte serum-free media (Invitrogen, Waltham, MA) with 5% CO2 at 37° C. and used at passage 2-3.
Western Blot. Routine procedures were followed (Chen et al. J. Biol. Chem. 2016, 291, 10252-10262, Chen et al. Pain 2014, 155, 2662-2672). Briefly, cultured keratinocytes and dissected dorsal neck skin (0.5×0.5 cm, the area that received the treatment) were protein-extracted in radioimmunoprecipitation assay (RIPA, Sigma, St. Louis, MO) buffer and electroblotted to polyvinylidene fluoride (PVDF) membranes after gel separation of proteins in a 4-15% polyacrylamide gel (Bio-Rad, Hercules, CA). […] Immunoblot band intensity was quantitated using the software Image J and ERK served as a control for pERK expression.

T1 sequence (Q9HBA0 whole entry R746C): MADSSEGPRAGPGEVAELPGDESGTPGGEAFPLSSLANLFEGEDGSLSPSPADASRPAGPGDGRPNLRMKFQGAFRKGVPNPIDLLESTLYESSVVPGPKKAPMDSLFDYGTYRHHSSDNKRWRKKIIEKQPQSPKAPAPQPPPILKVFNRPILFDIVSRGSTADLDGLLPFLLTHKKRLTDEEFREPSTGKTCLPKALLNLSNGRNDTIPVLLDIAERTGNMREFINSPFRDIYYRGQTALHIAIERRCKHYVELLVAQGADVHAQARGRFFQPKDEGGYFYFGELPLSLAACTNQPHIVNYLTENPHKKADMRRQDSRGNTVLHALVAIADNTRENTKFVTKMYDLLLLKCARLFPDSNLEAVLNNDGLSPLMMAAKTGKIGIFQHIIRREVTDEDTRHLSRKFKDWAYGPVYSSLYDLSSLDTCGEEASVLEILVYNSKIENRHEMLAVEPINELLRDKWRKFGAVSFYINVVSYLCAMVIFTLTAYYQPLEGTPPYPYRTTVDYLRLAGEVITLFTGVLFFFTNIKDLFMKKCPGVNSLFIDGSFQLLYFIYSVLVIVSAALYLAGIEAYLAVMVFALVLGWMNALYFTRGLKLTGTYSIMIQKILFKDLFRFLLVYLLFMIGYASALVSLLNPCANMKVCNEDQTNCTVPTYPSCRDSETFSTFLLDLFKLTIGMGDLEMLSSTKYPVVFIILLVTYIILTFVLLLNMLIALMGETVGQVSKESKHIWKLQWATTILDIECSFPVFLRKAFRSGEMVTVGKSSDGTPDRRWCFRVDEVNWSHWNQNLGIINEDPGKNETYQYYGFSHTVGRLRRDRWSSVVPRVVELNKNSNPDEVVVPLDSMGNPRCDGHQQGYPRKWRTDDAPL
T2 sequence (Q9HBA0 whole entry R746G): as the sequence (Q9HBA0 whole entry R746C) above, with C746G counted along it
rTRPV4-R746D, sequence (Q9ERZ8 whole entry R746D): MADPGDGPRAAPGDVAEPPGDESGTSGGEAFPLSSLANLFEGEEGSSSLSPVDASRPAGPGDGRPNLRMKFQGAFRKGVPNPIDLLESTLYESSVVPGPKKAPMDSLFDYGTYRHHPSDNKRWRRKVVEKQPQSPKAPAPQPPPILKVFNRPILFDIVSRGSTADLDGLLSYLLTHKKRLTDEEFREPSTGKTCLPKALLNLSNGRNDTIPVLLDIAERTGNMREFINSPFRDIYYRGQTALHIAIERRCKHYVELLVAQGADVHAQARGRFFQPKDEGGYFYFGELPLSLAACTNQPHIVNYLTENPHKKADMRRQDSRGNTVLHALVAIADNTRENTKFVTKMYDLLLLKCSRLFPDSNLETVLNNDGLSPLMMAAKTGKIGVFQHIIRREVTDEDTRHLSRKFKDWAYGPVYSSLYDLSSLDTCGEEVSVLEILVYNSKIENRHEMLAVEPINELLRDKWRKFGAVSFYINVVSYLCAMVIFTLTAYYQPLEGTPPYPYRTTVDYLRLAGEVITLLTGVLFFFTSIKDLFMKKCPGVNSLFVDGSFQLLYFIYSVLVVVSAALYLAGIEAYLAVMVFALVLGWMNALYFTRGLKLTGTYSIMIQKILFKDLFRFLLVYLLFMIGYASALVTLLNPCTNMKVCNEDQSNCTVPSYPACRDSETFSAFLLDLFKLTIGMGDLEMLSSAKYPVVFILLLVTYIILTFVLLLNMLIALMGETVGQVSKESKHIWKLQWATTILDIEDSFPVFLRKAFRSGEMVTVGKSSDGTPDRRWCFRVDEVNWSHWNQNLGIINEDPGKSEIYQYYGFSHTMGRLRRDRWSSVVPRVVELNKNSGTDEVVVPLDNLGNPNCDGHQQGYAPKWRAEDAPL

Row | Molecule | average activation of currents, normalized to 1 μM GSK101 (hTRPV4-R746C) [%] | average activation of currents, normalized to 1 μM GSK101 (hTRPV4-R746G) [%] | average activation of currents, normalized to 1 μM GSK101 (rTRPV4-R746D) [%] | effect on LPC-increased pERK expression (pERK expression [1]) | effect on LPC-increased pERK expression (pERK expression [2])
1 | LPC 18:1 | 11±4 | 13±4 | 15±3 | – | –
2 | Cc1c(C(=O)Nc2cccc(C(F)(F)F)c2)cc(-c2ccccc2)n1CCCN1CCOCC1 [HC067047] | – | – | – | eliminated the increase; also recorded: abolished | eliminated the increase; also recorded: abolished
